Calls of active or inactive are those of the source. The rule behind the calls is not given here.
Tests used:
[1] = Inhibition of LPS/nigericin-induced reactive oxygen species production in C57BL/6 mouse bone marrow-derived macrophages assessed as ROS level at 1 uM by DCFH-DA staining based flow cytometry (reference value: 33.51%); assay type: functional, BMDM; set-up: scale not given: the % may be the effect or the level left
[2] = molecular target: NACHT, LRR and PYD domains-containing protein 3 (Mus musculus) (UniProt Q8R4B8); test: Inhibition of NLRP3 inflammasome activation in LPS-stimulated mouse J774.A1 cells assessed as reduction in pyroptosis at 10 uM pretreated for 4 hrs with LPS and for 30 mins with compound prior to ATP addition and measured after 30 mins by PI/Hoechst33342 staining based analysis; assay type: cell-based; conditions: time 60.0 min
Sequence of NACHT, LRR and PYD domains-containing protein 3 (Mus musculus) (Q8R4B8 whole entry, the tested form may be a part): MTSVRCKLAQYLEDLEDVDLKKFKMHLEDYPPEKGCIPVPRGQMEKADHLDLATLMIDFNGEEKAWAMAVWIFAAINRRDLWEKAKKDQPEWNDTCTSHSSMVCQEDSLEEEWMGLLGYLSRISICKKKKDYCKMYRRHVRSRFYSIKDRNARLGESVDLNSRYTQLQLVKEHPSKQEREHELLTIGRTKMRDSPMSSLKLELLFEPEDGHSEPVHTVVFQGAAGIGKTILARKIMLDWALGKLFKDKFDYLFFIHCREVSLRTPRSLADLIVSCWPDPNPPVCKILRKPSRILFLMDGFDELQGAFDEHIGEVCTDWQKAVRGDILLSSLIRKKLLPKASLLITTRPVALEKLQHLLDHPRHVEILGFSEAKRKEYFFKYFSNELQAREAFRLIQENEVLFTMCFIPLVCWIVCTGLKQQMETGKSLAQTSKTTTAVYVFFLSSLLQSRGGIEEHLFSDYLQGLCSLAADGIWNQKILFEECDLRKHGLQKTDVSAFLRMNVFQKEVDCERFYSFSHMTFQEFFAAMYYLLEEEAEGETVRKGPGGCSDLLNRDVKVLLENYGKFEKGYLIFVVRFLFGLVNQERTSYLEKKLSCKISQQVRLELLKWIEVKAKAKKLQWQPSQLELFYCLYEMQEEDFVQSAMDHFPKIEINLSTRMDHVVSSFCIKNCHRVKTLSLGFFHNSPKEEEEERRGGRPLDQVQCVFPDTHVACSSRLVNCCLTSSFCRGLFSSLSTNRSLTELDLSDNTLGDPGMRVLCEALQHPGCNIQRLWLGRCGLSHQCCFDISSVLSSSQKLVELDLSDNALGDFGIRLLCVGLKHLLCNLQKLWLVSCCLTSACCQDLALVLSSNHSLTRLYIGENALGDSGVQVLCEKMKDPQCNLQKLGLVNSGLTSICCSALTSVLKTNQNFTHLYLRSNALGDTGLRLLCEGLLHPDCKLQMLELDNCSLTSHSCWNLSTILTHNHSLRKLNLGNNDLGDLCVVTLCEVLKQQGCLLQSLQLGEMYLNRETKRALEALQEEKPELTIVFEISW

[3] = molecular target: NACHT, LRR and PYD domains-containing protein 3 (Mus musculus) (UniProt Q8R4B8); test: (§1) Inhibition of NLRP3 inflammasome activation in LPS/MSU-treated C57BL/6 mouse bone marrow-derived macrophages assessed as reduction in IL-1beta secretion preincubated for 3 hrs with LPS and for 30 mins with compound prior to MSU addition and measured after 30 mins by ELISA; assay type: cell-based; conditions: BMDM, time 60.0 min
[4] = molecular target: NACHT, LRR and PYD domains-containing protein 3 (Mus musculus) (UniProt Q8R4B8); test: (§2) Inhibition of NLRP3 inflammasome activation in LPS/nigericin-treated C57BL/6 mouse bone marrow-derived macrophages assessed as inhibition of ASC oligomerization preincubated for 3 hrs with LPS and for 30 mins with compound prior to nigericin addition and measured after 30 mins by Western blot analysis; assay type: cell-based; conditions: BMDM, dose 0.5-2 µM, time 60.0 min, DDE = dose-dependent effect
Mus musculus [5] = test: Anti-colitis activity against DSS-induced colitis C57BL/6 mouse model assessed as reduction in IL-6 level in colon at 10 to 20 mg/kg, po administered once a day and measured on day 8 by ELISA; assay type: functional, organism-based; conditions: dose 10-20 mg/kg, time 8.0 day
[6] = Cytotoxicity against human L02 cells assessed as reduction in cell viability incubated for 24 hrs by MTT assay; assay type: toxicity, cell-based
Mus musculus [7] = test: Anti-colitis activity against DSS-induced colitis C57BL/6 mouse model assessed as reduction in colon shortening at 10 to 20 mg/kg, po administered once a day; assay type: functional, organism-based; conditions: dose 10-20 mg/kg
[8] = molecular target: NACHT, LRR and PYD domains-containing protein 3 (Mus musculus) (UniProt Q8R4B8); test: as §2, with “reduction in activated caspase 1(P20) level in culture supernatants” for “inhibition of ASC oligomerization”; assay type: cell-based; conditions: BMDM, dose 0.5-2 µM, time 60.0 min, DDE = dose-dependent effect
[9] = molecular target: NACHT, LRR and PYD domains-containing protein 3 (Mus musculus) (UniProt Q8R4B8); test: as §1, with “activated caspase 1(P20) level in culture supernatants” for “IL-1beta secretion”, “Western blot analysis” for “ELISA”; assay type: cell-based; conditions: BMDM, time 60.0 min
Mus musculus [10] = test: Anti-colitis activity against DSS-induced colitis C57BL/6 mouse model assessed as reduction in pathological index score of colon at 10 to 20 mg/kg, po administered once a day and measured on day 8 by H and E staining based analysis; assay type: functional, organism-based; conditions: dose 10-20 mg/kg, time 8.0 day
[11] = molecular target: NACHT, LRR and PYD domains-containing protein 3 (Mus musculus) (UniProt Q8R4B8); test: as §2, with “reduction in cleaved IL-1 beta level in culture supernatants” for “inhibition of ASC oligomerization”; assay type: cell-based; conditions: BMDM, dose 0.5-2 µM, time 60.0 min, DDE = dose-dependent effect
[12] = molecular target: NACHT, LRR and PYD domains-containing protein 3 (Mus musculus) (UniProt Q8R4B8); test: Inhibition of NLRP3 inflammasome activation in LPS-stimulated mouse J774.A1 cells assessed as reduction in pyroptosis pretreated for 4 hrs with LPS and for 30 mins with compound prior to ATP addition and measured after 30 mins by PI/Hoechst33342 staining based analysis; assay type: cell-based; conditions: dose 2.5-10 µM, time 60.0 min, DDE = dose-dependent effect
[13] = molecular target: NACHT, LRR and PYD domains-containing protein 3 (Mus musculus) (UniProt Q8R4B8); test: as §1, with “activated caspase 1(P20) level in cell lysates” for “IL-1beta secretion”, “Western blot analysis” for “ELISA”; assay type: subcellular; conditions: BMDM, time 60.0 min
[14] = molecular target: NACHT, LRR and PYD domains-containing protein 3 (Mus musculus) (UniProt Q8R4B8); test: as §2, with “reduction in activated caspase 1(P20) level in cell lysates at 0.5 to 2 uM” for “inhibition of ASC oligomerization”; assay type: subcellular; conditions: BMDM, dose 0.5-2 µM, time 60.0 min, DDE = dose-dependent effect
[15] = molecular target: NACHT, LRR and PYD domains-containing protein 3 (Mus musculus) (UniProt Q8R4B8); test: as §1, with “cleaved IL-1 beta level in culture supernatants” for “IL-1beta secretion”, “Western blot analysis” for “ELISA”; assay type: cell-based; conditions: BMDM, time 60.0 min
Mus musculus [16] = test: Anti-colitis activity against DSS-induced colitis C57BL/6 mouse model assessed as reduction in body weight loss at 10 to 20 mg/kg, po administered once a day; assay type: functional, organism-based; conditions: dose 10-20 mg/kg
Mus musculus [17] = test: Anti-colitis activity against DSS-induced colitis C57BL/6 mouse model assessed as reduction in TNF-alpha level in colon at 10 to 20 mg/kg, po administered once a day and measured on day 8 by ELISA; assay type: functional, organism-based; conditions: dose 10-20 mg/kg, time 8.0 day
Mus musculus [18] = test: Anti-colitis activity against DSS-induced colitis C57BL/6 mouse model assessed as reduction in IL-1 beta level in colon at 10 to 20 mg/kg, po administered once a day and measured on day 8 by ELISA; assay type: functional, organism-based; conditions: dose 10-20 mg/kg, time 8.0 day
[19] = Metabolic stability in human liver microsomes assessed as half life by LC-MS/MS analysis; assay type: ADME, Microsome
[20] = molecular target: NACHT, LRR and PYD domains-containing protein 3 (Mus musculus) (UniProt Q8R4B8); test: (§3) Inhibition of NLRP3 inflammasome activation in LPS/nigericin-treated C57BL/6 mouse bone marrow-derived macrophages assessed as reduction in IL-1beta secretion preincubated for 3 hrs with LPS and for 30 mins with compound prior to nigericin addition and measured after 30 mins by ELISA; assay type: cell-based; conditions: BMDM, time 60.0 min, DDE = dose-dependent effect
[21] = molecular target: NACHT, LRR and PYD domains-containing protein 3 (Mus musculus, UniProt Q8R4B8); test: as §3; assay type: cell-based, BMDM
Sequence of NACHT, LRR and PYD domains-containing protein 3 (Mus musculus, UniProt Q8R4B8) (Q8R4B8 whole entry, the tested form may be a part): as above

[22] = molecular target: NACHT, LRR and PYD domains-containing protein 3 (Mus musculus) (UniProt Q8R4B8); test: (§4) Inhibition of NLRP3 inflammasome activation in LPS/ATP-treated C57BL/6 mouse bone marrow-derived macrophages assessed as reduction in cleaved IL-1 beta level in culture supernatants preincubated for 3 hrs with LPS and for 30 mins with compound prior to ATP addition and measured after 30 mins by Western blot analysis; assay type: cell-based; conditions: BMDM, time 60.0 min
Mus musculus [23] = test: Anti-colitis activity against DSS-induced colitis C57BL/6 mouse model assessed as reduction in disease activity index administered po once a day; assay type: functional, organism-based; conditions: dose 10-20 mg/kg, DDE = dose-dependent effect
[24] = molecular target: NACHT, LRR and PYD domains-containing protein 3 (Mus musculus) (UniProt Q8R4B8); test: as §3, with “NEK7-NLRP3 protein-protein interaction at 2 to 4 uM” for “IL-1beta secretion”, “immunoprecipitation method” for “ELISA”; assay type: cell-based; conditions: BMDM, dose 2-4 µM, time 60.0 min
Mus musculus [25] = test: Anti-colitis activity against DSS-induced colitis C57BL/6 mouse model assessed as reduction in decrease of goblet cells in colon at 10 to 20 mg/kg, po administered once a day and measured on day 8 by H and E staining based analysis; assay type: functional, organism-based; conditions: dose 10-20 mg/kg, time 8.0 day
[26] = molecular target: NACHT, LRR and PYD domains-containing protein 3 (Mus musculus) (UniProt Q8R4B8); test: Inhibition of NLRP3 inflammasome activation in LPS/ATP-treated C57BL/6 mouse bone marrow-derived macrophages assessed as reduction in IL-1beta secretion preincubated for 3 hrs with LPS and for 30 mins with compound prior to ATP addition and measured after 30 mins by ELISA; assay type: cell-based; conditions: BMDM, time 60.0 min
[27] = molecular target: NACHT, LRR and PYD domains-containing protein 3 (Mus musculus) (UniProt Q8R4B8); test: as §3, with “ASC-NLRP3 protein-protein interaction at 2 to 4 uM” for “IL-1beta secretion”, “immunoprecipitation method” for “ELISA”; assay type: cell-based; conditions: BMDM, dose 2-4 µM, time 60.0 min
[28] = Metabolic stability in human liver microsomes assessed as intrinsic clearance by LC-MS/MS analysis; assay type: ADME, Microsome; conditions: read-out: CLH
[29] = Inhibition of LPS/nigericin-induced reactive oxygen species production in C57BL/6 mouse bone marrow-derived macrophages assessed as ROS level at 2 uM by DCFH-DA staining based flow cytometry (reference value: 33.51%); assay type: functional, BMDM; set-up: scale not given: the % may be the effect or the level left
[30] = molecular target: NACHT, LRR and PYD domains-containing protein 3 (Homo sapiens, UniProt Q96P20); test: Binding affinity to GFP-fused NLRP3 (unknown origin) expressed in HEK293T cells by MST assay; assay type: cell-based
Sequence of NACHT, LRR and PYD domains-containing protein 3 (Homo sapiens, UniProt Q96P20) (Q96P20 whole entry, the tested form may be a part): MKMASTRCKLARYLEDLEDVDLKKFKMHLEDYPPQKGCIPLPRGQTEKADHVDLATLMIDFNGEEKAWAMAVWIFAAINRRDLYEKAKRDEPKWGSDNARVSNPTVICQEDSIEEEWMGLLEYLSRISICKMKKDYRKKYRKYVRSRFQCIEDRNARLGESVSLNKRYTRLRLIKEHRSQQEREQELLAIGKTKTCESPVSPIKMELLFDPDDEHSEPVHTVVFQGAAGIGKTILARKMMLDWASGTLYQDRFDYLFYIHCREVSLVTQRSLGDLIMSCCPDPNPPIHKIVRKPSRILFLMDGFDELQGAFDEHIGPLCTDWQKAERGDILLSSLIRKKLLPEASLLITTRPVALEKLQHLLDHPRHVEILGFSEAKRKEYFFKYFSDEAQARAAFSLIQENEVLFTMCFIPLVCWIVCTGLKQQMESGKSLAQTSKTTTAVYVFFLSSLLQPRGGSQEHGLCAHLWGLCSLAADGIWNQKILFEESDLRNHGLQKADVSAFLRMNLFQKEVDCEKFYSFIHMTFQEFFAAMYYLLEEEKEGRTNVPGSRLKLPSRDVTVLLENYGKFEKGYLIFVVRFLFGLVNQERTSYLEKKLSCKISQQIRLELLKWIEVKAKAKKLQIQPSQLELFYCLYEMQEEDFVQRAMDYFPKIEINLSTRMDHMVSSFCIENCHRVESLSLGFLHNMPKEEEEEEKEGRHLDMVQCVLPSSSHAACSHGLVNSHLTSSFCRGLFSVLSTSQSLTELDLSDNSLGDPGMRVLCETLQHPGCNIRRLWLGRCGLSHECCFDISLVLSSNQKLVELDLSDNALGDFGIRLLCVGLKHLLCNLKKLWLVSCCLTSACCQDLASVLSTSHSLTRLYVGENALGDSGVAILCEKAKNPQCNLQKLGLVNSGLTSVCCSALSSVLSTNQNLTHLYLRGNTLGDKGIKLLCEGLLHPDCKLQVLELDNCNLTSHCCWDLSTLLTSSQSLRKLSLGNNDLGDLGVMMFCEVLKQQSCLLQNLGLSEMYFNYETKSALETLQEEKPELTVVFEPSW

[31] = molecular target: NACHT, LRR and PYD domains-containing protein 3 (Mus musculus) (UniProt Q8R4B8); test: Binding affinity to NLRP3 in mouse J774.A1 cell lysates assessed as reduction in protein degradation at 50 uM incubated at 48 to 78 degC by CETSA; assay type: subcellular
[32] = molecular target: NACHT, LRR and PYD domains-containing protein 3 (Mus musculus) (UniProt Q8R4B8); test: as §4, with “activated caspase 1(P20)” for “cleaved IL-1 beta”, “cell lysates” for “culture supernatants”; assay type: subcellular; conditions: BMDM, time 60.0 min
[33] = Metabolic stability in human hepatocytes assessed as intrinsic clearance by LC-MS/MS analysis; assay type: ADME, cell-based, Hepatocyte; conditions: read-out: CLH
[34] = molecular target: NACHT, LRR and PYD domains-containing protein 3 (Mus musculus) (UniProt Q8R4B8); test: as §4, with “activated caspase 1(P20)” for “cleaved IL-1 beta”; assay type: cell-based; conditions: BMDM, time 60.0 min
[35] = Inhibition of LPS/nigericin-induced reactive oxygen species production in C57BL/6 mouse bone marrow-derived macrophages assessed as ROS level at 4 uM by DCFH-DA staining based flow cytometry (reference value: 33.51%); assay type: functional, BMDM; set-up: scale not given: the % may be the effect or the level left

- inhibition [2]: 70.8%
- inhibition [3]: Active
- inhibition [4]: Dde
- inhibition [8]: Dde
- inhibition [9]: Active
- inhibition [11]: Dde
- inhibition [12]: Dde
- inhibition [13]: Active
- inhibition [14]: Dde
- inhibition [15]: Active
- half-life [19]: 2.31 h
- inhibition [20]: Dde
- IC50 [21]: 1230 nM
- inhibition [22]: Active
- inhibition [24]: Active
- inhibition [26]: Active
- inhibition [27]: Active
- microsomal CLint [28]: 10 µL/min/mg
- Kd [30]: 213 nM
- inhibition [31]: Active
- inhibition [32]: Active
- CLint scaled [33]: 7.4 mL/min/kg
- inhibition [34]: Active
SMILES: COc1cc(/C=C/c2ccc(NC(=O)c3ccco3)cc2)c(/C=C/[N+](=O)[O-])c(OC)c1
- Activity [1]: 30.5%
- Activity (Mus musculus [5]): Active
- IC50 at 24 h [6]: > 100000 nM
- Activity (Mus musculus [7]): Active
- Activity (Mus musculus [10]): Active
- Activity (Mus musculus [16]): Active
- Activity (Mus musculus [17]): Active
- Activity (Mus musculus [18]): Active
- Activity (Mus musculus [23]): Dde
- Activity (Mus musculus [25]): Active
- Activity [29]: 29.79%
- Activity [35]: 29.01%

Source: ChEMBL document CHEMBL5154869, “Discovery of 4-((E)-3,5-dimethoxy-2-((E)-2-nitrovinyl)styryl)aniline derivatives as potent and orally active NLRP3 inflammasome inhibitors for colitis” (Eur J Med Chem, 2022)
